In ChEMBL document CHEMBL1146545, “Ainigmaptilones, sesquiterpenes from the Antarctic gorgonian coral Ainigmaptilon antarcticus” (J Nat Prod, 2003):
Calls of active or inactive are those of the source. No cut-off for these calls is given here.

System: Antarctic bacterium
Assay: Antimicrobial activity against Antarctic bacteria at 5 mg/mL
Format: functional, organism-based

C=C(C)[C@@H]1CC[C@]2(CO)C=CC(=O)[C@@H](C)[C@H]2C1
Activity: Active
